From patent EP0641797A1, “Cephem derivatives and antimicrobial agents containing the same” (KATAYAMA SEIYAKUSYO CO. Ltd., priority 1993, dated 1995)
In brackets after ≈: the same amount, converted by molar mass. Where two headings read alike, the source gives them in different places.

Assays:
Test in all cases: MIC on standard strains, standard method of Japan Society of Chemotherapy
Assay type in all cases: cell-based
[1] = test system: P. mirabilis IFO 3849
Method: (§1) Antimicrobial activity of the compounds of the present invention were measured using CTM (cefotiam) and FMOX (flomoxef) as control drugs in accordance with the standard method of Japan Society of Chemotherapy. Of the 25 standard strains used in this test, Staphylococcus aureus 167 and Staphylococcus aureus 195 belong to MRSA.
(§2) In these tables, drugs tested are shown by the corresponding examples in which they were synthesized.

[2] = test system: E. cloacae ATCC 13407
Method: as §1, §2

[3] = test system: K. pneuminiae No. 42
Method: as §1, §2

[4] = test system: P. cepacia
Method: as §1, §2

[5] = test system: S. aureus 209p JC-1; details: Staphylococcus aureus, 209P, read-out: MIC
Method: as §1, §2

[6] = test system: E. cloacae Nek39
Method: as §1, §2

[7] = test system: M. luteus ATCC 9341; details: Micrococcus luteus, ATCC9341
Method: as §1, §2

[8] = test system: S. marcescens No. 16-2; details: Serratia marcescens, NO.162
Method: as §1, §2

[9] = test system: S. aureus 167; details: Staphylococcus aureus; S. aureus 167 (MRSA)
Method: as §1, §2

[10] = test system: S. aureus Smith; details: Staphylococcus aureus, read-out: MIC
Method: as §1, §2

[11] = test system: A. faecalis ATCC 3750; details: Alcaligenes faecalis, ATCC3750, A. faecalis ATCC 3750; read-out: MIC
Method: as §1, §2

[12] = test system: E. coli NHIJ JC-2; details: Escherichia coli, NHIJJC2
Method: as §1, §2

[13] = test system: P. aeruginosa AKR17; details: Pseudomonas aeruginosa
Method: as §1, §2

[14] = test system: P. aeruginosa NCTC 10490; details: Pseudomonas aeruginosa, NCTC10490, P. aeruginosa NCTC 10490; read-out: MIC
Method: as §1, §2

[15] = test system: M. morganii IFO 3848; details: Morganella morganii, IFO3848
Method: as §1, §2

[16] = test system: B. subtilis ATCC 6633
Method: as §1, §2

[17] = test system: E. coli CSH2(RK1); details: Escherichia coli
Method: as §1, §2

[18] = test system: K. pneuminiae IFO 3317
Method: as §1, §2

[19] = test system: A. calcoaceticos T59
Method: as §1, §2

[20] = test system: C. freundii ATCC 8090
Method: as §1, §2

[21] = test system: S. epidemidis IAM 1296
Method: as §1, §2

[22] = test system: E. coli CSH2(RE45); details: Escherichia coli
Method: as §1, §2

[23] = test system: S. marcescens IAM 1184; details: Serratia marcescens, IAM1184, S. marcescens IAM 1184; read-out: MIC
Method: as §1, §2

[24] = test system: S. aureus 195; details: Staphylococcus aureus; S. aureus 195 (MRSA)
Method: as §1, §2

[25] = test system: P. vulugaris OX-19
Method: as §1, §2

[26] = Proteus mirabilis, IFO3849, P. mirabilis IFO 3849, read-out: MIC
[27] = Enterobacter cloacae, ATCC13407, E. cloacae ATCC 13407, read-out: MIC
[28] = Burkholderia cepacia, read-out: MIC
[29] = Enterobacter cloacae, NEK39, E. cloacae Nek39, read-out: MIC
[30] = Bacillus subtilis, ATCC6633, B. subtilis ATCC 6633, read-out: MIC
[31] = Citrobacter freundii, ATCC8090, C. freundii ATCC 8090, read-out: MIC

SMILES: CO[C@@]1(NC(=O)CSC(F)F)C(=O)N2C(C(=O)O)=C(CSc3nnnn3CCO)CO[C@@H]21 [FMOX, flomoxef, reference compound]
- MIC ([1]; P. mirabilis IFO 3849): 0.2 µg/mL (≈ 0.403 µM)
- MIC [1, 26]: 0.39 µg/mL (≈ 0.786 µM)
- MIC ([2]; E. cloacae ATCC 13407): 100 µg/mL (≈ 201 µM)
- MIC [2, 27]: 50 µg/mL (≈ 101 µM)
- MIC [3]: 0.1 µg/mL (≈ 0.201 µM)
- MIC [4]: 100 µg/mL (≈ 201 µM)
- MIC [4, 28]: 50 µg/mL (≈ 101 µM)
- MIC [5]: 0.39 µg/mL (≈ 0.786 µM)
- MIC ([6]; E. cloacae Nek39): 100 µg/mL (≈ 201 µM)
- MIC [6, 29]: > 100 µg/mL
- MIC [7]: 0.1 µg/mL (≈ 0.201 µM)
- MIC [8]: 100 µg/mL (≈ 201 µM)
- MIC [9]: 50 µg/mL (≈ 101 µM)
- MIC [10]: 0.39 µg/mL (≈ 0.786 µM)
- MIC [11]: 0.1 µg/mL (≈ 0.201 µM)
- MIC [12]: 0.1 µg/mL (≈ 0.201 µM)
- MIC [13]: > 100 µg/mL
- MIC [14]: > 100 µg/mL
- MIC [15]: 0.39 µg/mL (≈ 0.786 µM)
- MIC ([16]; B. subtilis ATCC 6633): 0.2 µg/mL (≈ 0.403 µM)
- MIC [16, 30]: 0.39 µg/mL (≈ 0.786 µM)
- MIC [17]: 0.1 µg/mL (≈ 0.201 µM)
- MIC [18]: 0.05 µg/mL (≈ 0.101 µM)
- MIC [19]: 100 µg/mL (≈ 201 µM)
- MIC ([19]; read-out: MIC): > 100 µg/mL
- MIC ([20]; C. freundii ATCC 8090): 0.2 µg/mL (≈ 0.403 µM)
- MIC [20, 31]: 0.39 µg/mL (≈ 0.786 µM)
- MIC [21]: 0.2 µg/mL (≈ 0.403 µM)
- MIC [22]: 0.1 µg/mL (≈ 0.201 µM)
- MIC [23]: 0.2 µg/mL (≈ 0.403 µM)
- MIC [24]: 3.13 µg/mL (≈ 6.3 µM)
- MIC [25]: 0.39 µg/mL (≈ 0.786 µM)

SMILES: Nc1nc(/C(=N/O)C(=O)N[C@@H]2C(=O)N3C(C(=O)[O-])=C(C[n+]4cccc(-c5cscn5)c4)CS[C@H]23)cs1 [Ex. 9, 7β-[2-(2-aminothiazol-4-yl)-2-syn-hydroxyiminoacetamido]-3-[3-(thiazol-4-yl)pyridinio]methyl-3-cephem-4-carboxylate iodide]
- MIC [1, 26]: 0.39 µg/mL
- MIC [2, 27]: 1.56 µg/mL
- MIC [3]: 0.39 µg/mL
- MIC [4, 28]: > 100 µg/mL
- MIC [5]: 0.1 µg/mL
- MIC [6, 29]: 50 µg/mL
- MIC [7]: 0.05 µg/mL
- MIC [8]: 50 µg/mL
- MIC [9]: 6.25 µg/mL
- MIC [10]: 0.2 µg/mL
- MIC [11]: 3.13 µg/mL
- MIC [12]: 0.2 µg/mL
- MIC [13]: > 100 µg/mL
- MIC [14]: 3.13 µg/mL
- MIC [15]: 0.1 µg/mL
- MIC [16, 30]: 0.2 µg/mL
- MIC [17]: 0.39 µg/mL
- MIC [18]: 0.2 µg/mL
- MIC ([19]; read-out: MIC): 12.5 µg/mL
- MIC [20, 31]: 0.2 µg/mL
- MIC [21]: 0.05 µg/mL
- MIC [22]: 0.39 µg/mL
- MIC [23]: 0.39 µg/mL
- MIC [24]: 1.56 µg/mL
- MIC [25]: 0.39 µg/mL

SMILES: Nc1nc(/C(=N/O)C(=O)N[C@@H]2C(=O)N3C(C(=O)[O-])=C(C[n+]4ccc(-c5ncno5)cc4)CS[C@H]23)cs1 [Ex. 8, 7β-[2-(2-aminothiazol-4-yl)-2-syn-hydroxyiminoacetamido]-3-[4-(1,2,4-oxadiazol-5-yl)pyridinio]methyl-3-cephem-4-carboxylate]
- MIC [1, 26]: 0.2 µg/mL (≈ 0.378 µM)
- MIC [2, 27]: 3.13 µg/mL (≈ 5.92 µM)
- MIC [3]: 0.78 µg/mL (≈ 1.48 µM)
- MIC [4, 28]: > 100 µg/mL
- MIC [5]: 0.39 µg/mL (≈ 0.738 µM)
- MIC [6, 29]: 50 µg/mL (≈ 94.6 µM)
- MIC [7]: 0.05 µg/mL (≈ 0.0946 µM)
- MIC [8]: 100 µg/mL (≈ 189 µM)
- MIC [9]: 12.5 µg/mL (≈ 23.7 µM)
- MIC [10]: 0.39 µg/mL (≈ 0.738 µM)
- MIC [11]: 0.78 µg/mL (≈ 1.48 µM)
- MIC [12]: 0.39 µg/mL (≈ 0.738 µM)
- MIC [13]: > 100 µg/mL
- MIC [14]: 1.56 µg/mL (≈ 2.95 µM)
- MIC [15]: 0.05 µg/mL (≈ 0.0946 µM)
- MIC [16, 30]: 0.78 µg/mL (≈ 1.48 µM)
- MIC [17]: 1.56 µg/mL (≈ 2.95 µM)
- MIC [18]: 0.2 µg/mL (≈ 0.378 µM)
- MIC ([19]; read-out: MIC): 12.5 µg/mL (≈ 23.7 µM)
- MIC [20, 31]: 0.2 µg/mL (≈ 0.378 µM)
- MIC [21]: 0.1 µg/mL (≈ 0.189 µM)
- MIC [22]: 0.39 µg/mL (≈ 0.738 µM)
- MIC [23]: 0.39 µg/mL (≈ 0.738 µM)
- MIC [24]: 3.13 µg/mL (≈ 5.92 µM)
- MIC [25]: 0.2 µg/mL (≈ 0.378 µM)

SMILES: Nc1nc(/C(=N/O)C(=O)N[C@@H]2C(=O)N3C(C(=O)[O-])=C(C[n+]4ccc(-c5ncno5)cc4)CS[C@H]23)ns1 [Ex. 6, 7β-[2-(5-amino-1,2,4-thiadiazol-3-yl)-2-syn-hydroxyiminoacetamido]-3-[4-(1,2,4-oxadiazol-5-yl)pyridinio]methyl-3-cephem-4-carboxylate]
- MIC [1, 26]: 0.78 µg/mL (≈ 1.47 µM)
- MIC [2, 27]: 6.25 µg/mL (≈ 11.8 µM)
- MIC [3]: 1.56 µg/mL (≈ 2.95 µM)
- MIC [4, 28]: > 100 µg/mL
- MIC [5]: 0.78 µg/mL (≈ 1.47 µM)
- MIC [6, 29]: 50 µg/mL (≈ 94.4 µM)
- MIC [7]: 0.1 µg/mL (≈ 0.189 µM)
- MIC [8]: > 100 µg/mL
- MIC [9]: 12.5 µg/mL (≈ 23.6 µM)
- MIC [10]: 1.56 µg/mL (≈ 2.95 µM)
- MIC [11]: 3.13 µg/mL (≈ 5.91 µM)
- MIC [12]: 0.78 µg/mL (≈ 1.47 µM)
- MIC [13]: > 100 µg/mL
- MIC [14]: 0.78 µg/mL (≈ 1.47 µM)
- MIC [15]: 0.39 µg/mL (≈ 0.737 µM)
- MIC [16, 30]: 0.39 µg/mL (≈ 0.737 µM)
- MIC [17]: 1.56 µg/mL (≈ 2.95 µM)
- MIC [18]: 0.39 µg/mL (≈ 0.737 µM)
- MIC ([19]; read-out: MIC): 6.25 µg/mL (≈ 11.8 µM)
- MIC [20, 31]: 0.78 µg/mL (≈ 1.47 µM)
- MIC [21]: 0.39 µg/mL (≈ 0.737 µM)
- MIC [22]: 0.78 µg/mL (≈ 1.47 µM)
- MIC [23]: 0.78 µg/mL (≈ 1.47 µM)
- MIC [24]: 6.25 µg/mL (≈ 11.8 µM)
- MIC [25]: 1.56 µg/mL (≈ 2.95 µM)
